Measurements published in ChEMBL document CHEMBL1201862, “PubChem BioAssay data set” (2004).
Structures can show the parent of a compound that is named as a salt.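 96-well plates; 48 h exposure; 5 concentrations. Endpoints by linear interpolation between flanking doses. Not reached: highest tested concentration assigned. Here, GI50 denotes the concentration required for 50% inhibition of growth.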 Active and inactive are the calls of the source. Rule as the data show it: active = GI50 up to about 1.1 µM and inactive = higher.

Legend:
Test in all cases: NCI-60 cell line screen, 48 h
OVCAR-4 = test system: OVCAR-4
SF-539 = test system: SF-539
COLO 205 = test system: COLO 205
RXF 393 = test system: RXF 393
UACC-257 = test system: UACC-257
SNB-75 = test system: SNB-75
LOX IMVI = test system: LOX IMVI
OVCAR-8 = test system: OVCAR-8
CAKI-1 = test system: CAKI-1
NCI-H226 = test system: NCI-H226
M14 = test system: M14
MDA-MB-231 = test system: MDA-MB-231
HL-60 = test system: HL-60
K562 = test system: K562
HOP-62 = test system: HOP-62
NCI-H23 = test system: NCI-H23
BT-549 = test system: BT-549
RPMI-8226 = test system: RPMI-8226
NCI-H522 = test system: NCI-H522

Measured: GI50

O=c1[nH]c(=O)n(COCc2ccccc2)c2ccc(Br)cc12
inactive: OVCAR-4 60.8 µM | SF-539 > 100 µM | COLO 205 > 100 µM | RXF 393 > 100 µM | UACC-257 > 100 µM | SNB-75 43.4 µM | LOX IMVI > 100 µM | OVCAR-8 90.8 µM | CAKI-1 > 100 µM | NCI-H226 36.3 µM | M14 > 100 µM | MDA-MB-231 > 100 µM | HL-60 > 100 µM | K562 > 100 µM

C/C=C1/CC(C(=O)OC)N(C(=O)OCc2ccccc2)C1=S (configuration not stated)
inactive: HOP-62 > 100 µM | OVCAR-4 > 100 µM | NCI-H23 > 100 µM | BT-549 > 100 µM | COLO 205 > 100 µM | RPMI-8226 > 100 µM | RXF 393 > 100 µM | UACC-257 > 100 µM | SNB-75 > 100 µM | OVCAR-8 > 100 µM | CAKI-1 > 100 µM | M14 > 100 µM | NCI-H522 > 100 µM | MDA-MB-231 > 100 µM | K562 > 100 µM

O=C(NCc1ccc(Cl)cc1)c1cc2sccc2nc1C(F)(F)F
inactive: HOP-62 22.3 µM | OVCAR-4 19.8 µM | NCI-H23 45.5 µM | BT-549 39.9 µM | SF-539 27.7 µM | COLO 205 > 100 µM | RPMI-8226 > 100 µM | RXF 393 24 µM | UACC-257 69 µM | OVCAR-8 26.4 µM | CAKI-1 31.7 µM | NCI-H226 19.6 µM | M14 > 100 µM | NCI-H522 29.7 µM | MDA-MB-231 31.3 µM | K562 > 100 µM

COc1cc(OCc2ccc3nc(-c4ccccc4)c(Cl)nc3c2)cc(OC)c1OC
inactive: HOP-62 33.3 µM | OVCAR-4 > 100 µM | NCI-H23 40.3 µM | SF-539 31.2 µM | COLO 205 > 100 µM | RPMI-8226 > 100 µM | UACC-257 > 100 µM | SNB-75 48.4 µM | LOX IMVI > 100 µM | OVCAR-8 > 100 µM | CAKI-1 24.8 µM | M14 > 100 µM | NCI-H522 33.3 µM | MDA-MB-231 39.1 µM | HL-60 24.5 µM

CCOC(=O)N/N=C(\Cc1ccc([N+](=O)[O-])cc1)OCC
inactive: HOP-62 > 100 µM | OVCAR-4 > 100 µM | NCI-H23 > 100 µM | BT-549 > 100 µM | SF-539 > 100 µM | COLO 205 > 100 µM | RPMI-8226 > 100 µM | RXF 393 > 100 µM | UACC-257 > 100 µM | SNB-75 > 100 µM | LOX IMVI > 100 µM | OVCAR-8 > 100 µM | M14 > 100 µM | NCI-H522 > 100 µM | MDA-MB-231 > 100 µM | K562 > 100 µM

CN(C)CCCSc1nc2ccccc2[nH]1
inactive: HOP-62 > 100 µM | OVCAR-4 > 100 µM | NCI-H23 > 100 µM | BT-549 > 100 µM | COLO 205 > 100 µM | RPMI-8226 > 100 µM | RXF 393 > 100 µM | UACC-257 > 100 µM | SNB-75 > 100 µM | LOX IMVI > 100 µM | OVCAR-8 > 100 µM | CAKI-1 > 100 µM | NCI-H226 > 100 µM | M14 > 100 µM | NCI-H522 > 100 µM | MDA-MB-231 > 100 µM | K562 > 100 µM

CN(C)CCOC(c1ccccc1)c1ccccc1 [DIPHENHYDRAMINE HYDROCHLORIDE]
inactive: HOP-62 > 100 µM | OVCAR-4 > 100 µM | NCI-H23 > 100 µM | COLO 205 > 100 µM | RPMI-8226 84.3 µM | UACC-257 > 100 µM | LOX IMVI > 100 µM | OVCAR-8 > 100 µM | CAKI-1 > 100 µM | NCI-H226 > 100 µM | M14 51.2 µM | NCI-H522 > 100 µM | MDA-MB-231 > 100 µM | HL-60 > 100 µM | K562 > 100 µM

N#CC(c1ccc(Cl)cc1)c1cccc(C(C#N)c2ccc(Cl)cc2)n1 (configuration not stated)
inactive: HOP-62 93.8 µM | OVCAR-4 32.6 µM | NCI-H23 3.95 µM | COLO 205 14.4 µM | RPMI-8226 82 µM | UACC-257 14.1 µM | SNB-75 15.9 µM | OVCAR-8 55.1 µM | CAKI-1 16.9 µM | NCI-H226 37.4 µM | M14 34.8 µM | NCI-H522 17.6 µM | HL-60 12.1 µM | K562 6.35 µM

CCN(CC)CCNC(=O)c1cc2cc(NC(=O)c3cc4cc(N)ccc4[nH]3)ccc2[nH]1
inactive: HOP-62 55 µM | OVCAR-4 8.05 µM | NCI-H23 50.6 µM | BT-549 28.1 µM | SF-539 31.1 µM | COLO 205 12.9 µM | RPMI-8226 19.3 µM | RXF 393 20.3 µM | UACC-257 51.1 µM | OVCAR-8 32.2 µM | CAKI-1 86.5 µM | M14 26.1 µM | NCI-H522 19.1 µM | MDA-MB-231 25.4 µM | K562 18.6 µM
